Data from paper PMC10819888, “Benzimidazole-Based Derivatives as Apoptotic Antiproliferative Agents: Design, Synthesis, Docking, and Mechanistic Studies” (Molecules, 2024).
Read-outs that look alike come from different tables or passages of the source.

Key:
[1] = system: BRAF^V600E; set-up: method as in PMID 18942827; conditions: cited from earlier work
[2] = system: four cancer cell lines; set-up: method as in PMID 37716963; conditions: against four cancer cell lines; cited from earlier work
[3] = system: BRAF^V600E; set-up: method as in PMID 37716963; conditions: cited from earlier work
[4] = system: caspase-3; assay: Caspase-3 activation assay; format: cell-based, human; conditions: PC-3 cell line
Description: Caspase-3 is a key caspase that cleaves numerous cell proteins, resulting in apoptosis. […] They elevated the protein caspase-3 in the PC-3 cancer cell line by around seven to nine times compared to untreated control cells.
(§1) For more details, see Supplementary Materials. […]
4.2.3. Caspase-3 activation assay
Allow all reagents to reach room temperature before use. Gently mix all liquid reagents prior to use. Determine the number of 8-well strips needed for the assay. Insert these in the frame(s) for current use. Add 100 μl of the Standard Diluent Buffer to the zero standard wells. Well(s) reserved for chromogen blank should be left empty. Add 100 μl of standards and controls or diluted samples to the appropriate microtiter wells. The sample dilution chosen should be optimized for each experimental system. Tap gently on side of plate to mix. Cover wells with plate cover and incubate for 2 hours at room temperature. Thoroughly aspirate or decant solution from wells and discard the liquid, Wash wells 4 times. Pipette 100 μl of Caspase-3 (Active) Detection Antibod y solution into each well except the chromogen blank(s). Tap gently on the side of the plate to mix.
Cover plate with plate cover and incubate for 1 hour at room temperature. Thoroughly aspirate or decant solution from wells and discard the liquid, Wash well s 4 times. Add 100 μl Anti-Rabbit IgG HRP Working Solution to each well except the chromogen blank(s). Prepare the working dilution as described in Preparing IgG HRP. Cover wells with the plate cover and incubate for 30 minutes at room temperature. Thoroughly aspirate or decant solution from wells and discard the liquid. Wash wells 4 times. Add 100 μl of Stabilized Chromogen to each well. The liquid in the wells will begin to turn blue. Incubate for 30 minutes at room temperature and in the dark. The incuba tion time for chromogen substrate is often determined by the microtiter plate reader used. Many plate readers have the capacity to record a maximum optical density (O.D.) of 2.0. The O.D. values should be monitored, and the substrate reaction stopped befor e the O.D. of […]
the positive wells exceeds the limits of the instrument. The O.D. values at 450 nm can only be read after the Stop Solution has been added to each well. If using a reader that […]
100 μl of Stop Solution to each well. Tap side of plate gently to mix. The solution in the wells should change from blue to yellow. Read the absorbance of each well at 450 nm having blanked the plate reader against a chromogen blank composed of 100 μl each of Stabilized Chromogen and Stop Solution. Read the plate within 2 hours after adding the Stop Solution. Use a curve fitting software to generate the standard curve. A four-parameter algorithm provides the best standard curve fit. Read the concentrations for unknown samples and controls from the standard curve. Multiply value(s) obtained for sample(s) by the appropriate dilution factor to correct for the dilution in step 3. Samples producing signals greater than that of the highest standard should be diluted in Standard Diluent Buffer and reanalyzed. […]
A standard curve is […]
prepared from 7human Caspase-8 standard dilutions and human Caspase-8 concentration determined.

[5] = system: Bax; assay: Bax activation assay; format: cell-based, human; conditions: PC-3 cell line
Procedure: For more details, see Supplementary Materials.
4.2.5. Bax activation assay
Bring all reagents, except the human Bax-α Standard, to room temperature for at least 30 minutes prior to opening. The human Bax -α Standard solution should not be left at room temperature for more than 10 minutes. All standards, controls and samples should be run in duplicate. Refer to the Assay Layout Sheet to determine the number of wells to be used and put any remaining wells with the desiccant back into the pouch and seal the ziploc. Store unused wells at 4 °C. Pipet 100 μL of Assay Buffer into the S0 ( 0 pg/mL standard) wells. Pipet 100 μL of Standards #1 through #6 into the appropriate wells. Pipet 100 μL of the Samples into the appropriate wells. Tap the plate gently to mix the contents. Seal the plate and incubate at room temperature on a plate shaker for 1 hour at ~500 rpm. Empty the contents of the wells and wash by adding 400 μL of wash solution to every well. Repeat the wash 4 more times for a total of 5 washes. After the final wash, empty or aspirate the wells and firmly tap the plate on a lint fr ee paper towel to remove any remaining wash buffer. Pipet 100 μL of yellow Antibody into each well, except the Blank. Seal the plate and incubate at room temperature on a plate shaker for 1 hour at ~500 rpm. Empty the contents of the wells and wash by addi ng 400 μL of […]
the final wash, empty or aspirate the wells and firmly tap the plate on a lint free paper towel to remove any remaining wash buffer. Add 100 μL of blue Co njugate to each well, except the Blank. Seal the plate and incubate at room temperature on a plate shaker for 30 minutes at ~500 rpm. Empty the contents of the wells and wash by adding 400 μL of wash solution to every well. Repeat the wash 4 more times for a total of 5 washes .
After the final wash, empty or aspirate the wells and firmly tap the plate on a lint free paper towel to remove any remaining wash buffer. Pipet 100 μL of Substrate Solution into each well. Incubate for 30 minutes at room temperature on a plate shaker at ~500 rpm. Pipet 100 μL Stop Solution to each well. Blank the plate reader against the Blank wells, read the optical density at 450 nm. Calculate the average net Optical Density (OD) bound for each standard and sample by subtracting the average Blank OD from the average OD for each standard and sample. Using linear graph paper, plot the Average Net OD for each standard versus Bax concentration in each standard.
Approximate a straight line through the points. The concentration of Bax in the unknowns can be determined by interpolation. […]

[6] = system: Bcl-2; assay: Bcl-2 inhibition assay; format: cell-based, human; conditions: PC-3 cell line
Procedure: as §1
4.2.6. Bcl-2 inhibition assay
Mix all reagents thoroughly without foaming before use. Wash the microwells twice with approximately 300 μL Wash Buffer per well with thorough aspiration of microwell contents between washes. Take caution not to scratch the surface of the microwells.
After the last wash, empty the wells and tap microwell strips on absorbent pad or paper towel to remove excess Wash Buffer. Use the microwell strips immediately after washing or place upside down on a wet absorbent paper for not longer than 15 minutes.
Add 100 μL of Sample Diluent in duplicate to all standard wells and to the blank wells. Prepare standard (1:2 dilution) in duplicate ranging from 32 ng/mL to 0.5 ng/mL. Add 100 μL of Sample Diluent, in duplicate, to the blank wells.
Add 80 μL of Sample Diluent, in duplicate, to the sample wells. Add 20 μL of each Sample, in duplicate, to the designated wells. Add 50 μL of diluted biotin-conjugate to all wells, including the blank wells. Cover with a plate cover and incubate at room temperature, on a microplate shaker at 100 rpm if available, for 2 hours. Remove plate cover and empty the wells. Wash microwell strips 3 times as described in step 2. Add 100 μL of diluted Streptavidin-HRP to all wells, including the blank wells. Cover with a plate cover and incubate at room temperature, on a microplate shaker at 100 rpm if available, for 1 hour. Remove plate cover and empty the wells. Wash microwell strips […]
3 times as described in step 2. Proceed to the next step. Pipette 100 μl of mixed TMB Substrate Solution to all wells, including the blanks. Incubate the microwell strips at room temperature (18° to 25°C) for about 15 minutes, if available on a rotator set at 100 rpm. Avoid direct exposure to intense light. The point, at which the substrate reaction is stopped, is often determined by the ELISA reader. Many ELISA readers record absorbance only up to 2.0 O.D. Therefore, the color development within individual microwells must be watched by the person running the assay and the substrate reaction stopped before positive wells are no longer properly detectable. Stop the enzyme reaction by quickly pipetting 100 μL of Stop Solution into each well, including the blank wells. It is important that the Stop Solution is spread quickly and uniformly throughout the microwells to completely inactivate the enzyme. Results must be read immediately after the Stop Solution is added or within one hour if the microwell strips are stored at 2 - 8°C in the dark. Read absorbance of each microwell on a spectrophotometer using 450 nm as the primary wavelength.
4.3. Statistical analysis
Computerized Prism 5 program was used to statistically analyzed data using one-way ANOVA test followed by Tukey’s as post ANOVA for multiple comparison at P ≤.05.
Data were presented as mean ± SEM.

[7] = Figure 1, read-out: IC50 BRAF inhibitor
[8] = text b8, read-out: IC50 anti-BRAF^V600E

COC(=O)c1ccc2[nH]c(-c3ccc(Cl)cc3)nc2c1 [Compound 2]
IC50 [1, 7]: 2 nM
IC50 [1, 8]: 2000 nM

NNC(=O)c1ccc2[nH]c(-c3ccc(Cl)cc3)nc2c1 [Compound 3]
IC50 [1, 7]: 14 nM
IC50 [1, 8]: 14000 nM

COc1ccc(-c2nc3cc(-c4nnc(SCC(=O)Nc5ccc(C(=O)/C=C/c6ccccc6)cc5)o4)ccc3[nH]2)cc1 [Compound 4]
GI50 [2]: 1200 nM
IC50 [3]: 1700 ± 200 nM

CN[C@@H]1C[C@H]2O[C@@](C)([C@@H]1OC)n1c3ccccc3c3c4c(c5c6ccccc6n2c5c31)C(=O)NC4 [staurosporine, reference compound]
Caspase-3 Conc [4]: 260 ± 5 pg/mL
caspase-3 protein level [4]: 260 ± 5 pg/mL
Bax Conc [5]: 170 pg/mL
Bax increase compared to untreated PC-3 cancer cells [5]: 24 fold
Bax level [5]: 170 pg/mL
Bcl-2 Conc [6]: 1.00 ng/mL
